Earlier results as cited in article PMC10326281, “Insights into the mechanisms governing P01 scorpion toxin effect against U87 glioblastoma cells oncogenesis” (Frontiers in Pharmacology, 2023).
Read-outs that look alike come from different tables or passages of the source. Bridges are numbered along the chain shown (N, C = ends). Where no end group is shown, it is not given here.

Experiments:
SK2 channel = settings: HEK293 cells; ref Hosseini et al., 2001; cited from earlier work
Text: (§1) Besides, it seems that the effect of P01 on U87 cell proliferation is not due only to its blocking activity of SK2 channels, but also by targeting a complex of membrane receptors and/or effectors expressed in U87 cells, including SK2. […] These authors noted that the concentrations necessary for blocking proliferation were higher than those necessary for blocking these ion ...

U87 cells [1] = settings: ref Abdullaev et al., 2010; cited from earlier work
Text: as §1

hSK1 channel [2] = settings: ref Shah and Haylett, 2000, cited from earlier work
Text: This can be explained by the differential expression of either functional SK2 isoforms or other membrane receptors between HEK293 and Jurkat cells.

hSK1 channel [3] = settings: 2000, cited from earlier work
Text: (§2) Our team has initiated the fractionation of Aa scorpion venom, in order to identify scorpion peptides targeting potassium channels involved in the oncological process. Thus, we succeeded to isolate one peptide well represented in this venom. Based on its N-terminal sequence and its mass fingerprint this peptide corresponded to the P01 toxin, previously described by ([Zerrouk et al., 1996]).

rSK2 channel = settings: cited from earlier work
Text: as §2

Kv1.3 potassium channel = settings: ref Wang, 2004; cited from earlier work
Text: (§3) Recently, the anticancer activities of some natural peptides/toxins attracted considerable attention in drug discovery and have been the object of several studies showing that they affect tumor growth, induce apoptosis and inhibit cancer metastasis and angiogenesis in vitro and in vivo ([Ding et al., 2014]; [Majc et al., 2022]). Several examples of the activity of these peptides/toxins as well as their effect on K^+ channels have been recently summarized in many reviews.

[4] = system: pancreatic cancer cell lines; settings: ref Wang, 2004; cited from earlier work
Text: as §3, with “reviews. Thes ...” for “reviews.”

IKCa/SK4 channel = settings: ref Wang, 2004; cited from earlier work
Text: as §3, with “reviews. Thes ...” for “reviews.”

BKCa channel = settings: ref Wang, 2004; cited from earlier work
Text: as §3, with “reviews. Thes ...” for “reviews.”

[5] = system: endometrial cancer cell lines; settings: ref Wang, 2004; cited from earlier work
Text: as §3, with “reviews. Thes ...” for “reviews.”

integrins = settings: tumor cell and angiogenic endothelial cell surface; ref Schmitmeier et al., 2005; cited from earlier work
Text: (§4) Thus, P01 and KAaH1 inhibited the U87 cell migration with different mechanisms. […] For instance, PIVL, a Kunitz-type serine protease inhibitor, from the venom of the Tunisian snake Macrovipera lebetina transmediterranea, re ...

U87 cells [6] = settings: ref Pyrko et al., 2005, cited from earlier work
Text: as §4

For `c1ccc2c(c1)c1cc[n+]2CCCCC[n+]2ccc(c3ccccc32)NCCCCCN1` [UCL1848], the IC50 (SK2 channel) is listed as 0.12 nM and the “effect on U87 cell proliferation” value (U87 cells [1]) is listed as “no effect”.

In the case of “apamin (CNCKAPETALCARRCQQH-NH2; disulfide 1-11, 3-15; ends not checked; UniProt P01500 28-45, looked up)”, the IC50 (hSK1 channel [2]; COS-7 cells) is given as 12 nM, the IC50 (hSK1 channel [2]; Xenopus oocytes) is given as 0.1 nM and the IC50 (hSK1 channel [3]; HEK293 cells, ref Shah and Haylett) is given as 8 nM. The IC50 (hSK1 channel [3]; HEK 293 cells, ref Strobaek et al.) was 3.3 nM and the IC50 (rSK2 channel; HEK 293 cells, ref Strobaek et al., 2000) was 0.083 nM.

In the case of charybdotoxin, the “block of Kv1.3” value (Kv1.3 potassium channel) is listed as “known blocker”, the “proliferation and cell cycle progression” value [4] is listed as “inhibited proliferation and cell cycle progression” and the “block of IKCa/SK4” value (IKCa/SK4 channel) is listed as “known blocker”. For the same molecule, the “block of BKCa” value (BKCa channel) was “known blocker” and the “proliferation and cell cycle progression” value [5] was “inhibited proliferation and cell cycle progression”.

In the case of contortrostatin, the integrin binding (integrins) is given as “specifically binds to certain integrins”, the survival (U87 cells [6]; rodent glioma model) is given as “prolongation of survival” and the tumor progression (U87 cells [6]; tumor induced by stereotactic injection of U87 cells) is given as “inhibited the tumor (induced by the stereotactically injection of U87 cells) progression”.

In the case of “leiurotoxin I: first toxin isolated from Leiurus quintestriatus scorpin (AFCNLRMCQLSCRSLGLLGKCIGDKCECVKH-NH2; disulfide 12-28, 3-21, 8-26; ends not checked; UniProt P16341 1-31, looked up)”, the IC50 (rSK2 channel; HEK293 cells, ref Hosseini et al., 2001) is listed as 0.28 nM.
